Patent US8513295B2, “Viral and fungal inhibitors” (Georgetown University, priority 2008, dated 2013)

Experiments:
[1] = molecular target: DENV protease (Dengue virus type 2, UniProt P14340); assay: DENV protease inhibition activity; assay type: biochemical
Experimental: (§1) Compounds I-1 to I-14 and II-1 to II-4 (which were synthesized using methods of organic synthesis as discussed above) were analyzed by in vitro protease assays performed in opaque 96-well plates. The enzyme kinetics was done under steady-state conditions. The standard reaction mixtures (50 μL) containing 200 mM Tris-HCl, pH 9.5, 6 mM NaCl, 30% glycerol, 67 nM of WNV protease and 50 μM inhibitor in each assay were incubated for 15 min at room temperature. Reactions were started by the addition of the substrate Boc-Gly-Lys-Arg-AMC at 100 μM final concentration and incubated at room temperature for 15 min. The absorbance of each well containing para-nitroaniline was measured at 405 nm using a spectrophotometer (Molecular Devices, Sunnyvale, Calif.); the fluorescence of AMC released from the WNV substrate was measured using a Tecan Geneios (Durham, N.C.) spectrofluorometer at excitation and emission wavelengths of 390 nm and 420 nm, respectively. Similarly, the WNV protease activity was also determined using the fluorogenic tetrapeptide substrate containing the P4-P1 residues and the fluorogenic group, 4-methoxy-β-naphthylamide (MNA), at P1′ position (Z-Val-Lys-Lys-Arg-MNA) (SEQ ID NO:1). Fluorescence was measured using a spectrofluorometer (Molecular Devices) at excitation and emission wavelengths of 290 and 420 nm, respectively. Fluorescence values obtained with no inhibitor control were taken as 100% and those in the presence of inhibitors were plotted as the percent inhibition of the control.
(§2) Compounds I-2, I-4, I-6, I-7, I-8, I-9, I-23, I-26, I-27, I-28, I-29, I-30, I-31, I-32, III-1, III-2, VI-1, VI-2, VI-3, and VI-4 were also tested for WNV protease inhibition activity according to the procedure detailed above. Further, Compounds I-28, V-1, VI-2, VI-3, VI-4, and IX-1 were tested for DENV protease inhibition activity. The structures of Compounds I-2, I-4, I-6, I-7, I-8, I-9, I-23, I-26, I-27, I-28, I-29, I-30, I-31, I-32, III-1, III-2, VI-1, VI-2, VI-3, VI-4, and IX-1 are provided above.

[2] = molecular target: T1, WNV protease (UniProt Q9Q6P4); assay: in vitro WNV protease assay (Example 2); assay type: biochemical, West Nile Virus (EG101 strain); details: Protease Inhibition Activity, Table 1; read-out: IC50 (μM) WNVpro
T1 construct: "expression and purification of WNV (EG101 strain) were similar to those described elsewhere by Mueller et al."
T1 sequence (Q9Q6P4 1506-2124): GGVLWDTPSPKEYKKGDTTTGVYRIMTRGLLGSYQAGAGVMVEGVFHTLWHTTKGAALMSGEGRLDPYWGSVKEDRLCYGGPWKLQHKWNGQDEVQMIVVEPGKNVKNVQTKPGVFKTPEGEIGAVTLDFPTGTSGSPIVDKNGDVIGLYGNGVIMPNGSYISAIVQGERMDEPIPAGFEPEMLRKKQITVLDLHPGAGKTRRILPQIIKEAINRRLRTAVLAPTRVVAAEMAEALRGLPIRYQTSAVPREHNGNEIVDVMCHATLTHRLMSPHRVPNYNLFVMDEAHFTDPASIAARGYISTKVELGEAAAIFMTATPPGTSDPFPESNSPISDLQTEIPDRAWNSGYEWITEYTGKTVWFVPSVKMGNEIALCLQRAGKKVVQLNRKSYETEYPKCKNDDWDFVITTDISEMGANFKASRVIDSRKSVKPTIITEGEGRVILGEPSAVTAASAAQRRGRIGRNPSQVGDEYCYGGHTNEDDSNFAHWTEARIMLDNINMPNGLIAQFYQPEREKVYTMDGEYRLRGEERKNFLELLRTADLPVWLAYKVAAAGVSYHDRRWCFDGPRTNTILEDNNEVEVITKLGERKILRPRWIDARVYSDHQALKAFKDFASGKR
Experimental: Procedures for expression and purification of WNV (EG101 strain) were similar to those described elsewhere by Mueller et al., Int. J. Biochem. Cell. Biol., 39: 606-14 (2007). Briefly, E. coli Top10 F′ cells (Invitrogen, Carlsbad, Calif.) were transformed with the protease expression plasmid. Cells were grown at 37° C. until the OD600 was ˜0.5. Cells were then induced with isopropyl-1-thio-β-D-galactopyranoside (American Bioanalytical, Natick, Mass.) (0.5 mM), and incubated for 4 h at 37° C. Cells were harvested by centrifugation (5000×g) for 15 min at 4° C., washed once with a buffer containing 50 mM Tris-HCl, pH 7.5, and 200 mM NaCl, centrifuged at 5000×g for 15 min at 4° C., and stored at −80° C. until used.
Proteases were purified by suspending bacterial pellets in 50 mM Hepes, pH 7.0, 500 mM NaCl, (buffer A) with 0.05 mg/ml lysozyme. Cells were incubated for 30 min on ice after addition of 10% stock solution of Triton X-100 (final concentration of 0.5%). Cells were disrupted by sonication for 2 min and the soluble fraction was collected after centrifugation (15,000×g) for 30 min at 4° C. The soluble fraction was incubated for 1 h at 4° C. with Talon resin (BD Bioscience, San Jose, Calif.) which was pre-equilibrated in buffer A. The affinity resin was centrifuged at (400×g) for 10 min at 4° C., washed three times with buffer A, and packed into a column. Washing of the column was continued with the buffer A containing 10 mM imidazole, followed by elution of the protease with buffer A containing 150 mM imidazole. The protease was concentrated and further purified by Sephadex G-75 gel filtration chromatography. The purified protease fractions were pooled and dialyzed against a buffer containing 50 mM Tris-HCl pH 7.5 and 300 mM NaCl (4×1L). Aliquots (100 μl) were frozen at −80° C.
as §1, §2

DENV protease, sequence (P14340 1394-1440): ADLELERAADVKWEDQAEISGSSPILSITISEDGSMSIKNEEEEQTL
DENV protease, sequence (P14340 1476-1653): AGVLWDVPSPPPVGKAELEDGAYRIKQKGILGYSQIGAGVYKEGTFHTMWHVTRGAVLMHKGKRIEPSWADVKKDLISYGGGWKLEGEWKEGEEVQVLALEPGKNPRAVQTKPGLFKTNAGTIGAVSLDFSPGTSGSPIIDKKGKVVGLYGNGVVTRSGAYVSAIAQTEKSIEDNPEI

| SMILES | IC50 [1] [µM] | IC50 [2] [µM] |
| --- | --- | --- |
| O=C(CCC(C(=O)Nc1ccc(Oc2ccccc2)cc1)N1Cc2ccccc2C1=O)OCc1ccccc1 (centres unmarked) [Compound I-28] | 45 | 15.5 |
| O=C(CNC(=O)Nc1ccc(Oc2ccccc2)cc1)NCc1ccccc1 [Compound I-7] |  | 26.1 |
| O=C(CSc1nc2ccccc2s1)Nc1nc2ccccc2s1 [III-2] |  | 34.1 |
| O=C(CSc1nc2ccccc2c(=O)[nH]1)Nc1cccc(Oc2ccccc2)c1 [IX-1] | 89 |  |
| COc1ccc(Cc2nnc(C(Cc3ccccc3)n3sc4ccccc4c3=O)o2)cc1 (centres unmarked) [VI-1] |  | 26 |
| O=C(Nc1ccc(Oc2ccccc2)cc1)C(Cc1ccccc1)n1sc2ccccc2c1=O (centres unmarked) [Compound I-32] |  | 6.6 |
| O=c1c2ccccc2sn1C(Cc1ccccc1)c1nnc(-c2cccc(Cl)c2)o1 (centres unmarked) [VI-3] | 10.6 | 7.6 |
| O=C(Nc1cccc(Oc2ccccc2)c1)C(Cc1ccccc1)N1Cc2ccccc2C1=O (centres unmarked) [Compound I-2] |  | 11.1 |
| O=C(CNC(=O)Nc1ccc(Oc2ccccc2)cc1)Nc1ccccc1 [Compound I-9] |  | 31.2 |
| O=C(CC(C(=O)Nc1cccc(Oc2ccccc2)c1)N1Cc2ccccc2C1=O)OCc1ccccc1 (centres unmarked) [Compound I-26] |  | 13 |
| O=C(Nc1ccccc1Oc1ccccc1)C(Cc1ccccc1)n1sc2ccccc2c1=O (centres unmarked) [Compound I-30] |  | 6 |
| O=C(CSc1nc(-c2ccccc2)no1)Nc1nc2ccccc2[nH]1 [III-1] |  | 14.7 |
| O=C(CNC(=O)Nc1cccc(Oc2ccccc2)c1)NCc1ccccc1 [Compound I-6] |  | 22.1 |
| O=C(CNC(=O)Nc1cccc(Oc2ccccc2)c1)Nc1ccccc1 [Compound I-8] |  | 22.9 |
| O=C(CCCCc1ccccc1)Nc1cccc(Oc2ccccc2)c1 [Compound I-23] |  | 38.6 |
| O=C(Nc1ccc(Oc2ccccc2)cc1)C(Cc1ccccc1)N1Cc2ccccc2C1=O (centres unmarked) [Compound I-4] |  | 19.7 |
| O=C(CCC(C(=O)Nc1cccc(Oc2ccccc2)c1)N1Cc2ccccc2C1=O)OCc1ccccc1 (centres unmarked) [Compound I-27] |  | 22.7 |
| O=c1c2ccccc2sn1C(Cc1ccccc1)c1nnc(-c2cccc(F)c2)o1 (centres unmarked) [VI-4] | 11.4 | 9.8 |
| O=C(Nc1cccc(Oc2ccccc2)c1)C(Cc1ccccc1)n1sc2ccccc2c1=O (centres unmarked) [Compound I-31] |  | 2.6 |
| O=c1c2ccccc2sn1C(Cc1ccccc1)c1nnc(Cc2ccccc2)o1 (centres unmarked) [VI-2] | 9.6 | 2.1 |
| O=C(Nc1ccc(Oc2ccccc2)cc1)C(C(=O)OCc1ccccc1)n1sc2ccccc2c1=O (centres unmarked) [Compound I-29] |  | 9 |
| O=C1c2ccccc2CN1C(Cc1ccccc1)c1nnc(-c2cccc(Cl)c2)o1 (centres unmarked) [Compound V-1] | 12.2 |  |
